Test results: ChEMBL document CHEMBL5120946, “Bivalent BET Bromodomain Inhibitors Confer Increased Potency and Selectivity for BRDT via Protein Conformational Plasticity” (J Med Chem, 2022)

Columns and labels:
[1] = target: T1, Bromodomain testis-specific protein (Homo sapiens, UniProt Q58F21); assay: Binding affinity to N-terminal hexa-histidine tagged BRDT-T (2 to 416 residues) (unknown origin) expressed in Escherichia coli BL21(DE3) cells
[2] = Metabolic stability in pooled mouse liver microsomes assessed as half life; type: ADME, Microsome; conditions: for t1/2: microsomes; for half-life: pooled mouse liver microsomes
[3] = target: T2, Bromodomain-containing protein 4 (Homo sapiens, UniProt O60885); assay: Inhibition of recombinant human BRD4-1 (44 to 168 residues) expressed in bacterial expression system by bromoscan assay
MM1.S = assay: Growth inhibition of human MM1.S cells incubated for 72 hrs by CellTiter-Blue assay; type: functional, cell-based
[4] = target: T2, Bromodomain-containing protein 4; assay: Binding affinity to BRD4-T (unknown origin)
[5] = target: T1, Bromodomain testis-specific protein; assay: Inhibition of recombinant human BRDT-1 (21 to 137 residues) expressed in bacterial expression system by bromoscan assay
[6] = target: T1, Bromodomain testis-specific protein; assay: Inhibition of recombinant human BRDT-2 (250 to 382 residues) expressed in bacterial expression system by bromoscan assay
[7] = Metabolic stability in pooled human liver microsomes assessed as half life; type: ADME, Microsome; conditions: for t1/2: microsomes; for half-life: pooled human liver microsomes
[8] = target: T2, Bromodomain-containing protein 4; assay: Inhibition of recombinant human BRD4-2 (333 to 460 residues) expressed in bacterial expression system by bromoscan assay
Homo sapiens = species: Homo sapiens; assay: Selectivity ratio of Kd for BRD4 (unknown origin) to Kd for BRDT (unknown origin)
[9] = target: T2, Bromodomain-containing protein 4; assay: Inhibition of BRD4 in human MM1.S cells assessed as reduction in c-MYC level after 6 hrs by Western blot analysis; type: cell-based
[10] = Permeability in MDCK-MDR1 cells; type: ADME, cell-based, Canis lupus familiaris; conditions: dog; for Papp: MDCK-MDR1, read-out: permeability

Kd [1] | Kd [3] | IC50 (MM1.S) | Kd [4] | Kd [5] | Kd [6] | Kd [8] | Selectivity ratio (Homo sapiens) | half-life [7] | IC50 [9] | half-life [2] | Papp [10] | permeability ([10]; mdck-mdr1) | SMILES | t1/2 [2] | t1/2 [7]
1.3 nM | 6 nM | 1100 nM | 1.7 nM | 0.16 nM | 3.1 nM | 3.2 nM | 12 | 2.2 min | – | – | – | – | Cc1cnc(Nc2ccc(C(=O)NC3CCNCC3)c(F)c2)nc1Nc1cc(NS(=O)(=O)C(C)(C)C)cc(C(=O)NCCOCCOCCOCCC(=O)N2CCC(NC(=O)c3ccc(Nc4ncc(C)c(Nc5ccc(Cl)c(NS(=O)(=O)C(C)(C)C)c5)n4)cc3F)CC2)c1 | 55 min | –
0.058 nM | 0.095 nM | – | 0.29 nM | 0.089 nM | 5.5 nM | 0.32 nM | – | 315 min | – | 11 min | 15 ×10⁻⁶ cm/s | – | CCS(=O)(=O)Nc1ccc(OCCOCCOCCOCCOc2ccc(NS(=O)(=O)CC)cc2-c2cn(C)c(=O)c3ccccc23)c(-c2cn(C)c(=O)c3ccccc23)c1 | – | –
– | – | – | – | 77 nM | – | – | – | < 2.3 min | – | < 2.3 min | 0.13 ×10⁻⁶ cm/s | – | CCS(=O)(=O)Nc1cccc(-c2cn(C)c(=O)c3ccccc23)c1 | – | –
6 nM | 3.6 nM | 8.5 nM | 2.3 nM | 5 nM | 12 nM | 3.7 nM | – | – | – | – | – | 2.7 10^-6 cm/s | CCS(=O)(=O)Nc1ccc(Oc2ccc(Cl)cc2)c(-c2cn(C)c(=O)c3ccccc23)c1 | 74 min | 299 min

The next lines start with the compound.

SMILES | Kd [1] | Kd [3] | IC50 (MM1.S) | Kd [4] | Kd [5] | Kd [6] | Kd [8] | Selectivity ratio (Homo sapiens) | half-life [7] | IC50 [9] | half-life [2] | Papp [10] | permeability ([10]; mdck-mdr1) | t1/2 [2] | t1/2 [7]
Cc1cnc(Nc2ccc(C(=O)NC3CCN(C(=O)CCOCCOCCOCCOCCOCCC(=O)N4CCC(NC(=O)c5ccc(Nc6ncc(C)c(Nc7ccc(Cl)c(NS(=O)(=O)C(C)(C)C)c7)n6)cc5F)CC4)CC3)c(F)c2)nc1Nc1ccc(Cl)c(NS(=O)(=O)C(C)(C)C)c1 | 0.8 nM | 4.6 nM | 30 nM | 1.6 nM | 0.6 nM | 2.2 nM | 1.5 nM | – | – | – | – | – | – | 30 min | 10 min
Cc1cnc(Nc2ccc(C(=O)NC3CCN(C(=O)COCCOCCOCC(=O)N4CCC(NC(=O)c5ccc(Nc6ncc(C)c(Nc7ccc(Cl)c(NS(=O)(=O)C(C)(C)C)c7)n6)cc5F)CC4)CC3)c(F)c2)nc1Nc1ccc(Cl)c(NS(=O)(=O)C(C)(C)C)c1 | 2.6 nM | 28 nM | 59 nM | 4.8 nM | 0.6 nM | 8.4 nM | 9.1 nM | – | – | – | – | – | – | – | –
Cc1cnc(Nc2ccc(C(=O)NC3CCN(C)CC3)c(F)c2)nc1Nc1ccc(Cl)c(NS(=O)(=O)C(C)(C)C)c1 | 18 nM | – | 61 nM | 6.7 nM | 9.5 nM | 25 nM | 20 nM | – | – | – | – | – | – | – | –
Cn1cc(-c2cccc(N3CCCC3=O)c2)c2ccccc2c1=O | – | 335 nM | 58 nM | – | 875 nM | – | – | – | – | > 1000 nM | – | – | – | – | –
Cc1cnc(Nc2ccc(C(=O)NC3CCN(C(=O)CCOCCOCCOCCOCCC(=O)N4CCC(NC(=O)c5ccc(Nc6ncc(C)c(Nc7ccc(Cl)c(NS(=O)(=O)C(C)(C)C)c7)n6)cc5F)CC4)CC3)c(F)c2)nc1Nc1ccc(Cl)c(NS(=O)(=O)C(C)(C)C)c1 | 1.55 nM | 6.4 nM | 34 nM | 2.8 nM | 0.92 nM | 1.7 nM | 3 nM | – | – | – | – | – | – | 4.1 min | 5.6 min
Cc1cnc(Nc2ccc(C(=O)NC3CCN(C(=O)COCCOCC(=O)N4CCC(NC(=O)c5ccc(Nc6ncc(C)c(Nc7ccc(Cl)c(NS(=O)(=O)C(C)(C)C)c7)n6)cc5F)CC4)CC3)c(F)c2)nc1Nc1ccc(Cl)c(NS(=O)(=O)C(C)(C)C)c1 | 0.59 nM | 4 nM | 44 nM | 3.6 nM | 0.84 nM | 3.5 nM | 3.1 nM | – | – | – | – | – | – | – | –
